# Source: paper PMC12489694, “Design, Synthesis, Antidiabetic Activity and In Silico Studies of New Hydrazone Derivatives Derived from Acetohexamide” (ACS Omega, 2025)
# Entries after “also recorded” stand apart in the source; their conditions may differ. Like-named read-outs stand apart in the source and are kept apart here.
# Experiments:
# HEK293 cells = assay: MTT cytotoxicity assay on HEK293 cells; format: cell-based, human; conditions: for IC50: Homo sapiens, HEK293, 24 h exposure, 12.5–100 μM; for cytotoxic effects on healthy HEK293 cells (in words): 24 h, up to 100 μM
# Protocol: The HEK293 was used for cell culture studies and obtained from the American Type Culture Collection (ATCC). Cells were cultured in RPMI-1640 cell medium supplemented with 10% fetal calf serum (FBS) and 1% penicillin/streptomycin. Cells were seeded 6 × 10^5/mL density into 96 well cell culture plates and incubated in a CO2 incubator at 37 °C. The cells were exposed to different chemical concentrations (100, 50, 25 and 12,5 μM) for 24 h after reaching a confluency of 80%.
# The MTT assay was used to assess the cell viability. The MTT assay included putting the cells in an MTT solution (at 1 mg/mL concentration) and incubating them for 1 h at 37 °C. The absorbance was measured at a wavelength of 570 nm using an Epoch microplate spectrophotometer.
# α-glucosidase [1] = assay: α-glucosidase inhibitory activity (p-nitrophenyl-α-D-glucopyranoside method); format: biochemical
# Protocol: After 20 min incubation at 37 °C, 90 μL Na2CO3 (100 mM) was added into the each well to stop the enzymatic reaction. Absorbance of the 96-well microplate reader was recorded at 400 nm. Antidiabetic inhibition activity data were taken in three parallel measurements for four concentrations of each synthesis sample. The results of the biological activity analyses are presented as IC50 values.
# α-glucosidase [2] = assay: as above; format: biochemical; remark: listed apart in the source
# α-amylase = molecular target: T1, α-amylase (Sus scrofa, UniProt P00690); assay: α-amylase inhibitory activity (spectroscopic starch/Lugol method); format: biochemical
# T1 sequence (P00690 16-511): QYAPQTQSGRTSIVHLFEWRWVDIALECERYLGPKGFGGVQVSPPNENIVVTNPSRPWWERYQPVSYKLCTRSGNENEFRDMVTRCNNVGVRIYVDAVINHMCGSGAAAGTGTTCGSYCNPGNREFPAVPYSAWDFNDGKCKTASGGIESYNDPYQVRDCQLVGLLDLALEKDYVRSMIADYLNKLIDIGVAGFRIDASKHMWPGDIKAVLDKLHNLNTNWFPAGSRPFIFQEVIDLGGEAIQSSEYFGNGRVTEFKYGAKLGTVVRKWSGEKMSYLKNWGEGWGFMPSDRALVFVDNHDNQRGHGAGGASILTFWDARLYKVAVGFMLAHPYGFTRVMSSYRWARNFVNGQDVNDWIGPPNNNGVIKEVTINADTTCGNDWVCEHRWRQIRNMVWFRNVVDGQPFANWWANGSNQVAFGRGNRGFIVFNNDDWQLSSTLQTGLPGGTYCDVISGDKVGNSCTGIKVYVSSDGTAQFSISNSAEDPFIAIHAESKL
# [3] = mean ± SEM of three parallel measurements, read-out: antidiabetic inhibition activity IC50, α-glucosidase
# [4] = no unit in Table 5, same values as Table 2 (there μM), read-out: IC50 value (α-glucosidase), as repeated in docking Table 5
Structure (SMILES),IC50 (α-glucosidase [1]; [3]) [µM],IC50 (α-glucosidase [1]; [4]) [µM],IC50 (HEK293 cells) [µM],"type of inhibition of α-glucosidase (enzyme kinetic study, Lineweaver–Burk) (α-glucosidase [2])","type of inhibition of α-amylase (enzyme kinetic study, Lineweaver–Burk) (α-amylase)",cytotoxic effects on healthy HEK293 cells (in words) (HEK293 cells)
"C/C(=N\NC(=O)c1cccc2ccccc12)c1ccc(S(=O)(=O)NC(=O)NC2CCCCC2)cc1 [compound 11, 4-(1-(2-(1-Naphthalene)-hydrazinylidene)-ethyl)-N-(cyclocarbamoyl)-benzenesulfonamide]",57.1 ± 0.78,57.1 ± 0.78,> 100,,,
"C/C(=N\NC(=O)c1ccccc1)c1ccc(S(=O)(=O)NC(=O)NC2CCCCC2)cc1 [compound 1, 4-(1-(2-Benzoylhydrazinilidene)-ethyl)-N-(cyclohexylcarbamoyl)-benzenesulfonamide]",108 ± 0.69,108 ± 0.69,> 100,,,
"COc1ccc(C(=O)N/N=C(\C)c2ccc(S(=O)(=O)NC(=O)NC3CCCCC3)cc2)cc1 [compound 8, N-(Cyclohexylcarbamoyl)-4-(1-(2-(4-methoxy)-hydrazinilidene)-ethyl)-benzenesulfonamide]",38.1 ± 0.8,38.1 ± 0.8,,uncompetitive,uncompetitive,not causing any damage to healthy cells; also recorded: no negative impact on healthy cells
"CC(=NNC(=O)c1ccc(C)cc1)c1ccc(S(=O)(=O)NC(=O)NC2CCCCC2)cc1 [compound 7, N-(Cyclohexylcarbamoyl)-4-(1-(2-(4-methylbenzoyl)-hydrazinylidene)-ethyl)-benzenesulfonamide]",46.14 ± 0.33,46.14 ± 0.33,61,,,
"CC(=NNC(=O)c1ccccc1[N+](=O)[O-])c1ccc(S(=O)(=O)NC(=O)NC2CCCCC2)cc1 [compound 13, N-(Cyclohexylcarbamoyl)-4-(1-(2-(2-nitrobenzoyl)-hydrazinylidene)-ethyl)-benzenesulfonamide]",66.38 ± 0.37,66.38 ± 0.37,> 100,,,
"C[C@H]1O[C@H](O[C@H]2[C@H](O)[C@@H](O)[C@@H](O[C@H]3[C@H](O)[C@@H](O)C(O)O[C@@H]3CO)O[C@@H]2CO)[C@H](O)[C@@H](O)[C@@H]1N[C@H]1C=C(CO)[C@@H](O)[C@H](O)[C@H]1O (some centres unmarked) [acarbose, reference compound]",,,> 100,,,nontoxic; also recorded: no cytotoxic effects
"CC(=NNC(=O)c1ccc(Cl)cc1)c1ccc(S(=O)(=O)NC(=O)NC2CCCCC2)cc1 [compound 14, 4-(1-(2-(4-Chlorobenzoyl)-hydrazinylidene)-ethyl)-N-(cyclohexylcarbamoyl)-benzenesulfonamide]",52.25 ± 0.44,52.25 ± 0.44,,,,

# Further molecules by falling IC50 (α-glucosidase [1]; [3]), results first:
IC50 (α-glucosidase [1]; [3]) [µM],IC50 (α-glucosidase [1]; [4]) [µM],Structure (SMILES),IC50 (HEK293 cells) [µM],"type of inhibition of α-glucosidase (enzyme kinetic study, Lineweaver–Burk) (α-glucosidase [2])","type of inhibition of α-amylase (enzyme kinetic study, Lineweaver–Burk) (α-amylase)",cytotoxic effects on healthy HEK293 cells (in words) (HEK293 cells)
84.97 ± 0.46,84.97 ± 0.46,"CC(=NNC(=O)c1ccc(I)cc1)c1ccc(S(=O)(=O)NC(=O)NC2CCCCC2)cc1 [compound 4, N-(Cyclohexylcarbamoyl)-4-(1-(2-(4-iodobenzoyl)-hydrazinylidene)-ethyl)-benzenesulfonamide]",> 100,,,
77.36 ± 0.31,77.36 ± 0.31,"CC(=NNC(=O)c1ccc(Br)cc1)c1ccc(S(=O)(=O)NC(=O)NC2CCCCC2)cc1 [compound 5, N-(Cyclohexylcarbamoyl)-4-(1-(2-(4-bromobenzoyl)-hydrazinylidene)-ethyl)-benzenesulfonamide]",> 100,,,
68.75 ± 0.37,68.75 ± 0.37,"CC(=NNC(=O)c1cccc(Cl)c1)c1ccc(S(=O)(=O)NC(=O)NC2CCCCC2)cc1 [compound 2, 4-(1-(2-(3-Chlorobenzoyl)-hydrazinylidene)-ethyl)-N-(cyclohexylcarbamoyl)-benzenesulfonamide]",> 100,,,
61.2 ± 0.69,61.2 ± 0.69,"CC(=NNC(=O)c1cccc([N+](=O)[O-])c1)c1ccc(S(=O)(=O)NC(=O)NC2CCCCC2)cc1 [compound 9, N-(Cyclohexylcarbamoyl)-4-(1-(2-(3-nitrobenzoyl)-hydrazinylidene)-ethyl)-benzenesulfonamide]",69.2,,,
45.34 ± 0.36,45.34 ± 0.36,"CC(=NNC(=O)c1ccc(F)cc1)c1ccc(S(=O)(=O)NC(=O)NC2CCCCC2)cc1 [compound 3, N-(Cyclohexylcarbamoyl)-4-(1-(2-(4-fluorobenzoyl)-hydrazinylidene)-ethyl)-benzenesulfonamide]",> 100,,,not causing any damage to healthy cells; also recorded: no negative impact on healthy cells
40.44 ± 0.23,40.44 ± 0.23,"CC(=NNC(=O)c1ccc([N+](=O)[O-])cc1)c1ccc(S(=O)(=O)NC(=O)NC2CCCCC2)cc1 [compound 10, N-(Cyclohexylcarbamoyl)-4-(1-(2-(4-nitrobenzoyl)-hydrazinylidene)-ethyl)-benzenesulfonamide]",> 100,,,not causing any damage to healthy cells; also recorded: no negative impact on healthy cells
